Experimental data taken from ChEMBL document CHEMBL4507261, “Data for DCP probe A-192621” (2021).

What was measured:
[1] = molecular target: Prostaglandin G/H synthase 2 (Homo sapiens) (UniProt P35354); test: COX2(h) Eurofins-Cerep enzyme and uptake assay; conditions: Compound concentration 10.0 uM
[2] = molecular target: Adenosine receptor A2b (Homo sapiens) (UniProt P29275); test: A2B (h) Eurofins-Cerep binding assay; design: ligand concentration 5 nM; conditions: filed as antagonist, Compound concentration 10.0 uM
[3] = molecular target: Beta-2 adrenergic receptor (Homo sapiens) (UniProt P07550); test: Beta2 (h) Eurofins-Cerep binding assay; design: ligand concentration 0.3 nM; conditions: filed as antagonist, Compound concentration 10.0 uM
[4] = molecular target: Translocator protein (Rattus norvegicus) (UniProt P16257); test: BZD (peripheral) Eurofins-Cerep binding assay; design: ligand concentration 0.2 nM; conditions: filed as antagonist, Compound concentration 10.0 uM
[5] = molecular target: Melatonin receptor type 1B (Homo sapiens) (UniProt P49286); test: MT2 (ML1B) (h) Eurofins-Cerep binding assay; design: ligand concentration 0.05 nM; conditions: filed as agonist, Compound concentration 10.0 uM
[6] = molecular target: Glutamate NMDA receptor (Rattus norvegicus) (UniProt P35439+Q00959+Q00960+Q00961+Q62645+Q8VHN2+Q9R1M7); test: PCP Eurofins-Cerep binding assay; assay type: protein-complex assay; design: ligand concentration 10 nM; conditions: filed as antagonist, Compound concentration 10.0 uM
[7] = molecular target: P2X receptor (Rattus norvegicus) (UniProt P51579+P49653+P51578+Q64663+P47824+P51577+P49654); test: P2X Eurofins-Cerep binding assay; assay type: protein assay; design: ligand concentration 3 nM; conditions: filed as agonist, Compound concentration 10.0 uM
[8] = molecular target: 5-hydroxytryptamine receptor 1A (Homo sapiens) (UniProt P08908); test: 5-HT1A (h) Eurofins-Cerep binding assay; design: ligand concentration 0.5 nM; conditions: filed as agonist, Compound concentration 10.0 uM
[9] = molecular target: RAC-alpha serine/threonine-protein kinase (Homo sapiens) (UniProt P31749); conditions: Compound concentration 1000.0 nM
[10] = molecular target: Aurora kinase A (Homo sapiens) (UniProt O14965); conditions: Compound concentration 1000.0 nM
[11] = molecular target: Tyrosine-protein kinase receptor UFO (Homo sapiens) (UniProt P30530); conditions: Compound concentration 1000.0 nM
[12] = molecular target: Tyrosine-protein kinase Blk (Homo sapiens) (UniProt P51451); conditions: Compound concentration 1000.0 nM
[13] = molecular target: Calcium/calmodulin-dependent protein kinase type II subunit alpha (Homo sapiens) (UniProt Q9UQM7); conditions: Compound concentration 1000.0 nM
[14] = molecular target: Cyclin-dependent kinase 8 (Homo sapiens) (UniProt P49336); conditions: Compound concentration 1000.0 nM
[15] = molecular target: Macrophage colony-stimulating factor 1 receptor (Homo sapiens) (UniProt P07333); conditions: Compound concentration 1000.0 nM
[16] = molecular target: Casein kinase I isoform delta (Homo sapiens) (UniProt P48730); conditions: Compound concentration 1000.0 nM
Sequence of Casein kinase I isoform delta (Homo sapiens) (P48730 whole entry, looked up, canonical isoform): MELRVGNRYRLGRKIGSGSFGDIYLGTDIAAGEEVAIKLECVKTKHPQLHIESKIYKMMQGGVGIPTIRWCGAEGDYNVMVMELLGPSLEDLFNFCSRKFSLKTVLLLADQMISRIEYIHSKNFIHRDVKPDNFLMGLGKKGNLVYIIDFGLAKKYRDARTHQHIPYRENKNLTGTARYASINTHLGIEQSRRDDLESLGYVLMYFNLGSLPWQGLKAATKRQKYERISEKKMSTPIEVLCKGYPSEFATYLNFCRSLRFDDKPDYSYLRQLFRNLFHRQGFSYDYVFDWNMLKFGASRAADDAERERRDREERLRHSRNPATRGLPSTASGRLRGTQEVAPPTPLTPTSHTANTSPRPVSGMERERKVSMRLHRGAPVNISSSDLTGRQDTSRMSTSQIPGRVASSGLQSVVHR

[17] = molecular target: Serine/threonine-protein kinase DCLK3 (Homo sapiens) (UniProt Q9C098); conditions: Compound concentration 1000.0 nM
[18] = molecular target: Dual specificity tyrosine-phosphorylation-regulated kinase 1B (Homo sapiens) (UniProt Q9Y463); conditions: Compound concentration 1000.0 nM
Sequence of Dual specificity tyrosine-phosphorylation-regulated kinase 1B (Homo sapiens) (Q9Y463 whole entry, looked up): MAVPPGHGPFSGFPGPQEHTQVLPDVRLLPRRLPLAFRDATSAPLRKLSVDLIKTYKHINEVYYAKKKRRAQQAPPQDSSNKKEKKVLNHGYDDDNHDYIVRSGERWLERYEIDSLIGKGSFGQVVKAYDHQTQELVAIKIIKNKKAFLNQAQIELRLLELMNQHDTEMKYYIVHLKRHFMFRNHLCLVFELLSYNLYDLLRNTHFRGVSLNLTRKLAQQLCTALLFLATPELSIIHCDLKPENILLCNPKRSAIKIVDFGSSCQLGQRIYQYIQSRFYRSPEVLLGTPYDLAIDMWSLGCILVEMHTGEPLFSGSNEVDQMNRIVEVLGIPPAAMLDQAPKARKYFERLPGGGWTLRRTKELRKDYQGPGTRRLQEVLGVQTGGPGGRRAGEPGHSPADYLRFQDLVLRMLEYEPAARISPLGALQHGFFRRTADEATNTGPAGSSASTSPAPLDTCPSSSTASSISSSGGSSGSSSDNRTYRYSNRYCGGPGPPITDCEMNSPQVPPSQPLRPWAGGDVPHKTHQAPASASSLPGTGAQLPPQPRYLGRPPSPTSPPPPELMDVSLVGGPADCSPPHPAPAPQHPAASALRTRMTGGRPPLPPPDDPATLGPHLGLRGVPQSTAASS

[19] = test system: Epidermal growth factor receptor (Homo sapiens), P00533 [UNDEFINED MUTATION]; conditions: Compound concentration 1000.0 nM
Sequence of Epidermal growth factor receptor (Homo sapiens), P00533 [UNDEFINED MUTATION] (P00533 whole entry, looked up, change not shown): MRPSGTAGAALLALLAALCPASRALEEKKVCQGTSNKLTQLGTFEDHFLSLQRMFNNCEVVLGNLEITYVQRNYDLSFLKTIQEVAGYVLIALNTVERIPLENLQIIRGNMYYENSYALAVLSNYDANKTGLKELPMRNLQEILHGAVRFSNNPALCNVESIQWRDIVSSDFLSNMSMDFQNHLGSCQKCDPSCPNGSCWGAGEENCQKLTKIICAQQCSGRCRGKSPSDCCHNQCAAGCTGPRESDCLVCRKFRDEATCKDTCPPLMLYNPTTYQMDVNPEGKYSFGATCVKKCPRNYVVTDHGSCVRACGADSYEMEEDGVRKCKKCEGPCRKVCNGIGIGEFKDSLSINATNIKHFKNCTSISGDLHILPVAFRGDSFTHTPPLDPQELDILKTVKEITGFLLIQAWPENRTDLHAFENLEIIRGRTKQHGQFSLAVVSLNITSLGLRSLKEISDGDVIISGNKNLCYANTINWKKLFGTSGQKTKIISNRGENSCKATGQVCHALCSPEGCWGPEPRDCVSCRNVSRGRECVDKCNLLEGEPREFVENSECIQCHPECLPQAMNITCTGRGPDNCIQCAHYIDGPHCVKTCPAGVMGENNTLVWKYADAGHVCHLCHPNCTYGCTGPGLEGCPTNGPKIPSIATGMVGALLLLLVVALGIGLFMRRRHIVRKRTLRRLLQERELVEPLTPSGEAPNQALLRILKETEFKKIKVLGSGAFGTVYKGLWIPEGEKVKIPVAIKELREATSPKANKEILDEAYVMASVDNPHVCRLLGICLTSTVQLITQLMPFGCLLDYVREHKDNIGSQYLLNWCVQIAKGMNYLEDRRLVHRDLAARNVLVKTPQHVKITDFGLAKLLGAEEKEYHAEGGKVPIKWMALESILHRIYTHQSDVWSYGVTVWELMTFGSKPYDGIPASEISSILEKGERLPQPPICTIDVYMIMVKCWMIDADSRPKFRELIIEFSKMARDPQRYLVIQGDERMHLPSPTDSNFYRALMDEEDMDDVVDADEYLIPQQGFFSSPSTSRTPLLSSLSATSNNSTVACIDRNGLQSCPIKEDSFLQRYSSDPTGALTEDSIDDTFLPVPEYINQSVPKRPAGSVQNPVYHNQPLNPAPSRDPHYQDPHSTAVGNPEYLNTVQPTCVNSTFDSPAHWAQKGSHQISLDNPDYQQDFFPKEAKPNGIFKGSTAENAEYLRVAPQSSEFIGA

[20] = molecular target: Ephrin type-A receptor 1 (Homo sapiens) (UniProt P21709); conditions: Compound concentration 1000.0 nM
[21] = molecular target: Ephrin type-A receptor 4 (Homo sapiens) (UniProt P54764); conditions: Compound concentration 1000.0 nM
[22] = molecular target: Mitogen-activated protein kinase 1 (Homo sapiens) (UniProt P28482); conditions: Compound concentration 1000.0 nM
[23] = molecular target: Mitogen-activated protein kinase 7 (Homo sapiens) (UniProt Q13164); conditions: Compound concentration 1000.0 nM
[24] = molecular target: Fibroblast growth factor receptor 3 (Homo sapiens) (UniProt P22607); conditions: Compound concentration 1000.0 nM
[25] = molecular target: Serine/threonine-protein kinase ICK (Homo sapiens) (UniProt Q9UPZ9); conditions: Compound concentration 1000.0 nM
[26] = molecular target: Mitogen-activated protein kinase 10 (Homo sapiens) (UniProt P53779); conditions: Compound concentration 1000.0 nM
[27] = molecular target: Mitogen-activated protein kinase kinase kinase kinase 2 (Homo sapiens) (UniProt Q12851); conditions: Compound concentration 1000.0 nM
Sequence of Mitogen-activated protein kinase kinase kinase kinase 2 (Homo sapiens) (Q12851 whole entry): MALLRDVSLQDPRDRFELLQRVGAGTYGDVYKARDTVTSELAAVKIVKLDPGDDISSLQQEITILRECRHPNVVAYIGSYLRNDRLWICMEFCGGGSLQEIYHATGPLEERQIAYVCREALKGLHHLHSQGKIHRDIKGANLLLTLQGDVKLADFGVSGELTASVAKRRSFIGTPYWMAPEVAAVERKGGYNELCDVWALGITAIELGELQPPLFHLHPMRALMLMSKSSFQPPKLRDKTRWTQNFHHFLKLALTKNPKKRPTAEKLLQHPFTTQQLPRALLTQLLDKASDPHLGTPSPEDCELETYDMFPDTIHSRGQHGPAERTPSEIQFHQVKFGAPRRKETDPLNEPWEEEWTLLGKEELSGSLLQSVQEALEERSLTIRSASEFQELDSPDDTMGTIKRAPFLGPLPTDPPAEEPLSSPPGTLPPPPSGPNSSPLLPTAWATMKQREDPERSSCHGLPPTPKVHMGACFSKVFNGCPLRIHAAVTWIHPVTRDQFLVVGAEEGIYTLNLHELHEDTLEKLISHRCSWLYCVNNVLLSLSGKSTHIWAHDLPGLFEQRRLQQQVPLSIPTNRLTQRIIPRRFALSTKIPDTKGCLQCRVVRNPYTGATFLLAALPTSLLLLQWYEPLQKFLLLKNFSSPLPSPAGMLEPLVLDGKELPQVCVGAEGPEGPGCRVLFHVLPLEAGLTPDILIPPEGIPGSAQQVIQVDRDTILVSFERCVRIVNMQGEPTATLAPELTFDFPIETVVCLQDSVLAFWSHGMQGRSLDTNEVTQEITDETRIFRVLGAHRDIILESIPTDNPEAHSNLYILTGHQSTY

[28] = molecular target: Serine/threonine-protein kinase MARK1 (Homo sapiens) (UniProt Q9P0L2); conditions: Compound concentration 1000.0 nM
[29] = molecular target: MAP kinase-interacting serine/threonine-protein kinase 1 (Homo sapiens) (UniProt Q9BUB5); conditions: Compound concentration 1000.0 nM
[30] = molecular target: Serine/threonine-protein kinase 4 (Homo sapiens) (UniProt Q13043); conditions: Compound concentration 1000.0 nM
[31] = molecular target: Serine/threonine-protein kinase Nek7 (Homo sapiens) (UniProt Q8TDX7); conditions: Compound concentration 1000.0 nM
[32] = molecular target: Platelet-derived growth factor receptor alpha (Homo sapiens) (UniProt P16234); conditions: Compound concentration 1000.0 nM
[33] = test system: Phosphatidylinositol 4,5-bisphosphate 3-kinase catalytic subunit alpha isoform (Homo sapiens), P42336 [E545A]; conditions: Compound concentration 1000.0 nM
[34] = molecular target: Protein kinase C iota type (Homo sapiens) (UniProt P41743); conditions: Compound concentration 1000.0 nM
[35] = molecular target: Protein-tyrosine kinase 2-beta (Homo sapiens) (UniProt Q14289); conditions: Compound concentration 1000.0 nM
[36] = molecular target: Ribosomal protein S6 kinase alpha-3 (Homo sapiens) (UniProt P51812); conditions: Compound concentration 1000.0 nM
[37] = molecular target: Ribosomal protein S6 kinase alpha-6 (Homo sapiens) (UniProt Q9UK32); conditions: Compound concentration 1000.0 nM
[38] = molecular target: Serine/threonine-protein kinase 33 (Homo sapiens) (UniProt Q9BYT3); conditions: Compound concentration 1000.0 nM
[39] = molecular target: TGF-beta receptor type-1 (Homo sapiens) (UniProt P36897); conditions: Compound concentration 1000.0 nM
Sequence of TGF-beta receptor type-1 (Homo sapiens) (P36897 whole entry): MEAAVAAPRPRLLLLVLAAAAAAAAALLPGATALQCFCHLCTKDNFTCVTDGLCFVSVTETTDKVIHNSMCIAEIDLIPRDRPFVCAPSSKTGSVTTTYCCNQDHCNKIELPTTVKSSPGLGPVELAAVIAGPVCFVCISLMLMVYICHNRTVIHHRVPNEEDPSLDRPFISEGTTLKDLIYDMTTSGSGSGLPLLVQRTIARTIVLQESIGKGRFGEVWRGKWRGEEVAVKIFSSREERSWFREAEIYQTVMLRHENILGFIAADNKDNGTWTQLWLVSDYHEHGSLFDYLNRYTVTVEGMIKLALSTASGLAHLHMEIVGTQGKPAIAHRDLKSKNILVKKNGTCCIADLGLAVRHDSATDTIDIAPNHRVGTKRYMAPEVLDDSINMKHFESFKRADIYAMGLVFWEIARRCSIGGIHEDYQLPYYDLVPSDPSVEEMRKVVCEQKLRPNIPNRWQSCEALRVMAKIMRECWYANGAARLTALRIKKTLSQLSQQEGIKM

[40] = molecular target: Serine/threonine-protein kinase tousled-like 2 (Homo sapiens) (UniProt Q86UE8); conditions: Compound concentration 1000.0 nM
Sequence of Serine/threonine-protein kinase tousled-like 2 (Homo sapiens) (Q86UE8 whole entry, looked up): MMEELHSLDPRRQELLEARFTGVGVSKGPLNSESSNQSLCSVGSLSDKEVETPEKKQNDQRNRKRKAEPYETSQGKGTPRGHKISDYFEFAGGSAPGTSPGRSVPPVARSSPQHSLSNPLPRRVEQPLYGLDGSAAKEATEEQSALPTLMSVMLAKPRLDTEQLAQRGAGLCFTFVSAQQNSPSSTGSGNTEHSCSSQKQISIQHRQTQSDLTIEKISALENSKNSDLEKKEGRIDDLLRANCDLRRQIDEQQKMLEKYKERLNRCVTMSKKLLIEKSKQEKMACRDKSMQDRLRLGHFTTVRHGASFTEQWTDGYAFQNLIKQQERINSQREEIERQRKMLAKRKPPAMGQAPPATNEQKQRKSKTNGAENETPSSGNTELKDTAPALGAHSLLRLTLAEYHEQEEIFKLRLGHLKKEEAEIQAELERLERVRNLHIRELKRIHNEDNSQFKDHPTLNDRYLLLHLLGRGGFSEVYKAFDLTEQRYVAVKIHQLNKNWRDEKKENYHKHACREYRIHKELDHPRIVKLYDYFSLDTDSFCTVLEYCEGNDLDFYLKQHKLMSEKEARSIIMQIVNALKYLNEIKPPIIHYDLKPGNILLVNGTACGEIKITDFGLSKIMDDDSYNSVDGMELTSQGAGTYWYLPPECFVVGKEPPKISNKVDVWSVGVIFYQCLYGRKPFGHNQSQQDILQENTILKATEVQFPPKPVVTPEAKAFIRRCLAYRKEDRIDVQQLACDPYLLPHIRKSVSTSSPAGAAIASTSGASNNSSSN

[41] = molecular target: Serine/threonine-protein kinase TNNI3K (Homo sapiens) (UniProt Q59H18); conditions: Compound concentration 1000.0 nM
[42] = molecular target: Testis-specific serine/threonine-protein kinase 3 (Homo sapiens) (UniProt Q96PN8); conditions: Compound concentration 1000.0 nM
[43] = molecular target: Non-receptor tyrosine-protein kinase TYK2 (Homo sapiens) (UniProt P29597); conditions: Compound concentration 1000.0 nM
[44] = molecular target: Serine/threonine-protein kinase WNK3 (Homo sapiens) (UniProt Q9BYP7); conditions: Compound concentration 1000.0 nM

Sequence of Prostaglandin G/H synthase 2 (Homo sapiens) (P35354 whole entry): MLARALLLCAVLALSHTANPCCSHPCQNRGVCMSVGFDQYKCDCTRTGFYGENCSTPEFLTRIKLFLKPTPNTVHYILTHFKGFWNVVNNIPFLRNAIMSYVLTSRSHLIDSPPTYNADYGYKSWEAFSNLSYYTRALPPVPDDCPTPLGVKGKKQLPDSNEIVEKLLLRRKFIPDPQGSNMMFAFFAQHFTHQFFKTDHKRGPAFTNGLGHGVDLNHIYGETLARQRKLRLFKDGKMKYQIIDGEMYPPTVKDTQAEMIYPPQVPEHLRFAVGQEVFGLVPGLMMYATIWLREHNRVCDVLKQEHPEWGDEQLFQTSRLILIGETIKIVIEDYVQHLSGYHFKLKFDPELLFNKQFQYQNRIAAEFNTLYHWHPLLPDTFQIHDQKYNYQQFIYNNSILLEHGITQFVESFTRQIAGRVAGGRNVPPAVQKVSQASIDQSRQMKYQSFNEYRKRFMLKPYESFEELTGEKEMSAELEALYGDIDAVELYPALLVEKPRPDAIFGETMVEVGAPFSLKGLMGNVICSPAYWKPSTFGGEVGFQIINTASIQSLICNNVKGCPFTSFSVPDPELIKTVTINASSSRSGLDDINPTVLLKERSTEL

CCCOc1ccc([C@H]2[C@H](C(=O)O)[C@@H](c3ccc4c(c3)OCO4)CN2CC(=O)Nc2c(CC)cccc2CC)cc1 [A-192621]
% Inhibition of Control Values (Mean n=2) [1]: 44% | % Inhibition of Control Specific Binding (Mean n=2) [2]: -6.1% | % Inhibition of Control Specific Binding (Mean n=2) [3]: -0.2% | % Inhibition of Control Specific Binding (Mean n=2) [4]: 72.1% | % Inhibition of Control Specific Binding (Mean n=2) [5]: 2.4% | % Inhibition of Control Specific Binding (Mean n=2) [6]: -1.5% | % Inhibition of Control Specific Binding (Mean n=2) [7]: -2.8% | % Inhibition of Control Specific Binding (Mean n=2) [8]: -5.9% | residual activity [9]: 97% | residual activity [10]: 93% | residual activity [11]: 83% | residual activity [12]: 88% | residual activity [13]: 90% | residual activity [14]: 76% | residual activity [15]: 61% | residual activity [16]: 80% | residual activity [17]: 100% | residual activity [18]: 100% | residual activity [19]: 100% | residual activity [20]: 86% | residual activity [21]: 97% | residual activity [22]: 100% | residual activity [23]: 97% | residual activity [24]: 100% | residual activity [25]: 59% | residual activity [26]: 80% | residual activity [27]: 79% | residual activity [28]: 100% | residual activity [29]: 65% | residual activity [30]: 99% | residual activity [31]: 96% | residual activity [32]: 80% | residual activity [33]: 92% | residual activity [34]: 78% | residual activity [35]: 98% | residual activity [36]: 73% | residual activity [37]: 77% | residual activity [38]: 65% | residual activity [39]: 64% | residual activity [40]: 94% | residual activity [41]: 100% | residual activity [42]: 58% | residual activity [43]: 80% | residual activity [44]: 90%

CCCOc1ccc([C@@H]2[C@@H](C(=O)O)[C@H](c3ccc4c(c3)OCO4)CN2CC(=O)Nc2c(CC)cccc2CC)cc1 [A-1806262]
% Inhibition of Control Values (Mean n=2) [1]: 34% | % Inhibition of Control Specific Binding (Mean n=2) [2]: -8.6% | % Inhibition of Control Specific Binding (Mean n=2) [3]: 3.6% | % Inhibition of Control Specific Binding (Mean n=2) [4]: 54.7% | % Inhibition of Control Specific Binding (Mean n=2) [5]: -3.1% | % Inhibition of Control Specific Binding (Mean n=2) [6]: 0.2% | % Inhibition of Control Specific Binding (Mean n=2) [7]: 13.4% | % Inhibition of Control Specific Binding (Mean n=2) [8]: -3.8% | residual activity [9]: 100% | residual activity [10]: 94% | residual activity [11]: 93% | residual activity [12]: 96% | residual activity [13]: 100% | residual activity [14]: 86% | residual activity [15]: 90% | residual activity [16]: 83% | residual activity [17]: 100% | residual activity [18]: 99% | residual activity [19]: 78% | residual activity [20]: 100% | residual activity [21]: 75% | residual activity [22]: 100% | residual activity [23]: 93% | residual activity [24]: 100% | residual activity [25]: 100% | residual activity [26]: 95% | residual activity [27]: 98% | residual activity [28]: 100% | residual activity [29]: 73% | residual activity [30]: 95% | residual activity [31]: 100% | residual activity [32]: 76% | residual activity [33]: 92% | residual activity [34]: 80% | residual activity [35]: 97% | residual activity [36]: 76% | residual activity [37]: 76% | residual activity [38]: 69% | residual activity [39]: 64% | residual activity [40]: 100% | residual activity [41]: 84% | residual activity [42]: 81% | residual activity [43]: 81% | residual activity [44]: 94%
